Target: ATP-dependent translocase ABCB1 (Homo sapiens, UniProt P08183)
Assay: TP_TRANSPORTER: transepithelial transport (basal to apical) in MDR1-expressing LLC-PK1 cells
Type: functional, cell-based
Conditions: pig

Sequence of ATP-dependent translocase ABCB1 (P08183 whole entry): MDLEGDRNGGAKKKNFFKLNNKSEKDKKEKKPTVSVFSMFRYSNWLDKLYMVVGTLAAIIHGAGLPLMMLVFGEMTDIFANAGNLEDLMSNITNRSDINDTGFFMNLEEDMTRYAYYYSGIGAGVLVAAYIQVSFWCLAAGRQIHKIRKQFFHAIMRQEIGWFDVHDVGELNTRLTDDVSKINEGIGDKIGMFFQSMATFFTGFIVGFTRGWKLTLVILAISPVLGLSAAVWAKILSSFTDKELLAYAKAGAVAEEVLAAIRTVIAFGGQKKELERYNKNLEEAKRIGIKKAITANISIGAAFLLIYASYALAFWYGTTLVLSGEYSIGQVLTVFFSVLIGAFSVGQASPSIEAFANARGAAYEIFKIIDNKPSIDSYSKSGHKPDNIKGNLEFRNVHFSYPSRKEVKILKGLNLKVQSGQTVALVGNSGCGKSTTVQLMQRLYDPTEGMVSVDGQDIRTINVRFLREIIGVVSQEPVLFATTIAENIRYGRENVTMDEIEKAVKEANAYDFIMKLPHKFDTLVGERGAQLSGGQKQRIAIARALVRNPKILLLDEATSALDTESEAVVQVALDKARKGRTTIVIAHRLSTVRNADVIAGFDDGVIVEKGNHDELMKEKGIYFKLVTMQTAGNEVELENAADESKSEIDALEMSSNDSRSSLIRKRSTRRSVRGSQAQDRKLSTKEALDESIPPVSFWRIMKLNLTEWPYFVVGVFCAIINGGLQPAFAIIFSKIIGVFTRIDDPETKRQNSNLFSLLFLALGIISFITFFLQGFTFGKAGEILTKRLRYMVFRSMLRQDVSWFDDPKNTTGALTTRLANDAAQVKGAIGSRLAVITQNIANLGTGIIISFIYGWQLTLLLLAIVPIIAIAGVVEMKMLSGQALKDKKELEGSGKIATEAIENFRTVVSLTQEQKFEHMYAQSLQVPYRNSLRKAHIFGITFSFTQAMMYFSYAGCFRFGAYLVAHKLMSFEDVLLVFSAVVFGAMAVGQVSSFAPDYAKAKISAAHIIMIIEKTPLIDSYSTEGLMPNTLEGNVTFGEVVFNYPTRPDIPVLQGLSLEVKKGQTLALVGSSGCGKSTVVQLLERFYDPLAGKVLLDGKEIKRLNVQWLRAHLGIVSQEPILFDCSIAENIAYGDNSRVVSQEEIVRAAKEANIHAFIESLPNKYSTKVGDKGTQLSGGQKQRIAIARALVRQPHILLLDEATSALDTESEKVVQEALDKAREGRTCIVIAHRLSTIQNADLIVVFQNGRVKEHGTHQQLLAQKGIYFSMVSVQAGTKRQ

- Activity: is not a substrate [-]
SMILES: C[C@]12CCC(=O)C=C1CC[C@@H]1[C@@H]2CC[C@@]2(C)[C@H]1CC[C@]2(O)C(=O)CO [CORTODOXONE]

Reference: ChEMBL document CHEMBL2073785, “The role of the efflux transporter P-glycoprotein in brain penetration of prednisolone” (J Endocrinol, 2002)
